According to patent US20200016122A1, “METHOD FOR REDUCING ITCHING IN ATOPIC DERMATITIS” (priority 2018, published 2020):

Assays:
Kwl:ICR mice = conditions: mouse, in vivo, 14 days
Procedure: (§1) The present inventors performed single oral dose toxicity tests (2,000 mg/kg) for N-nonanoyltryptamine over 14 days using Kwl:ICR mice. […] Patch tests were performed on human skin, the skin irritation index was 0.0, and the safety was confirmed (LIFE SCIENCE LABORATORIES, LTD., June 2011).

goats = assay type: in vivo; conditions: 1.0 mg/50 kg/day over 4 years
human skin = test: patch test on human skin; assay type: in vivo; conditions: patch tests on human skin
Procedure: as §1

`CCCCCCCCC(=O)NCCc1c[nH]c2ccccc12` [N-nonanoyltryptamine] was tested, and the lethal dose (Kwl:ICR mice) was ≥ 2,000 mg/kg, the breeding effect (goats) was “strong breeding effect” and the skin irritation index (human skin) was 0.0.
